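Five concentrations, 48 hours, 96-well plates. TGI: total growth inhibition.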
Tests used:
Assay in all cases: DTP human tumour cell line panel, 48 h
[1] = test system: 786-0 renal
[2] = test system: A498 renal
[3] = test system: A549 NSCLC
[4] = test system: ACHN renal
[5] = test system: BT-549 breast
[6] = test system: CAKI-1 renal
[7] = test system: CCRF-CEM leukemia
[8] = test system: DU-145 prostate
[9] = test system: HCC-2998 colon
[10] = test system: HCT-116 colon
[11] = test system: HCT-15 colon
[12] = test system: HL-60(TB) leukemia
[13] = test system: HOP-62 NSCLC
[14] = test system: HT29 colon
[15] = test system: IGROV1 ovarian
[16] = test system: K-562 leukemia
[17] = test system: LOX IMVI melanoma
[18] = test system: M14 melanoma
[19] = test system: MALME-3M melanoma
[20] = test system: MCF7 breast
[21] = test system: MDA-MB-231 breast
[22] = test system: MDA-MB-435
[23] = test system: MDA-N
[24] = test system: MOLT-4 leukemia
[25] = test system: NCI-H226 lung
[26] = test system: NCI-H23 lung
[27] = test system: NCI-H460 lung
[28] = test system: NCI-H522 lung
[29] = test system: OVCAR-3 ovarian
[30] = test system: OVCAR-4 ovarian
[31] = test system: OVCAR-5 ovarian
[32] = test system: OVCAR-8 ovarian
[33] = test system: PC-3 prostate
[34] = test system: RPMI-8226 leukemia
[35] = test system: SF-268 CNS
[36] = test system: SK-MEL-2 melanoma
[37] = test system: SK-MEL-28 melanoma
[38] = test system: SK-MEL-5 melanoma
[39] = test system: SN12C renal
[40] = test system: SNB-19 CNS
[41] = test system: SNB-75 CNS
[42] = test system: SR leukemia
[43] = test system: SW-620 colon
[44] = test system: T-47D breast
[45] = test system: TK-10 renal
[46] = test system: U251 CNS
[47] = test system: UACC-257 melanoma
[48] = test system: UACC-62 melanoma
[49] = test system: UO-31 renal
[50] = test system: COLO 205 colon
[51] = test system: EKVX NSCLC
[52] = test system: HOP-92 NSCLC
[53] = test system: KM12 colon
[54] = test system: NCI/ADR-RES ovarian
[55] = test system: RXF 393 renal
[56] = test system: SF-295 CNS
[57] = test system: SF-539 CNS
[58] = test system: SK-OV-3 ovarian

Cc1ccc(N=NC(=O)NNc2ccc(C)c([N+](=O)[O-])c2)cc1[N+](=O)[O-]
TGI [1]: 90.4 µM | TGI [2]: 63.2 µM | TGI [3]: > 100 µM | TGI [4]: 90.3 µM | TGI [5]: > 100 µM | TGI [6]: > 100 µM | TGI [7]: > 100 µM | TGI [8]: > 100 µM | TGI [9]: 33 µM | TGI [10]: > 100 µM | TGI [11]: > 100 µM | TGI [12]: 50.4 µM | TGI [13]: 63.5 µM | TGI [14]: > 100 µM | TGI [15]: > 100 µM | TGI [16]: 50.3 µM | TGI [17]: 36.7 µM | TGI [18]: > 100 µM | TGI [19]: 83.3 µM | TGI [20]: 69.5 µM | TGI [21]: > 100 µM | TGI [22]: > 100 µM | TGI [23]: > 100 µM | TGI [24]: 65.5 µM | TGI [25]: > 100 µM | TGI [26]: > 100 µM | TGI [27]: 77 µM | TGI [28]: 36.8 µM | TGI [29]: 57.4 µM | TGI [30]: 82.6 µM | TGI [31]: > 100 µM | TGI [32]: > 100 µM | TGI [33]: > 100 µM | TGI [34]: 85.8 µM | TGI [35]: > 100 µM | TGI [36]: 30.3 µM | TGI [37]: 77.4 µM | TGI [38]: 77.7 µM | TGI [39]: > 100 µM | TGI [40]: > 100 µM | TGI [41]: 95.9 µM | TGI [42]: > 100 µM | TGI [43]: > 100 µM | TGI [44]: > 100 µM | TGI [45]: > 100 µM | TGI [46]: > 100 µM | TGI [47]: 88.3 µM | TGI [48]: 50.2 µM | TGI [49]: 82.8 µM

C=C1[C@@H](OC(C)=O)[C@H]2[C@@H](OC(C)=O)[C@@](C)(OC(C)=O)C[C@]2(OC(C)=O)C(=O)[C@@H](C)/C=C/C(C)(C)C(=O)C[C@H]1OC(C)=O
TGI [1]: > 100 µM | TGI [3]: > 100 µM | TGI [4]: > 100 µM | TGI [6]: > 100 µM | TGI [7]: > 100 µM | TGI [50]: > 100 µM | TGI [8]: > 100 µM | TGI [51]: > 100 µM | TGI [9]: > 100 µM | TGI [10]: > 100 µM | TGI [11]: > 100 µM | TGI [13]: > 100 µM | TGI [52]: > 100 µM | TGI [14]: > 100 µM | TGI [15]: > 100 µM | TGI [16]: > 100 µM | TGI [53]: > 100 µM | TGI [17]: > 100 µM | TGI [18]: > 100 µM | TGI [19]: > 100 µM | TGI [20]: > 100 µM | TGI [21]: > 100 µM | TGI [22]: > 100 µM | TGI [23]: > 100 µM | TGI [24]: > 100 µM | TGI [25]: > 100 µM | TGI [26]: > 100 µM | TGI [28]: > 100 µM | TGI [54]: > 100 µM | TGI [29]: > 100 µM | TGI [30]: > 100 µM | TGI [31]: > 100 µM | TGI [32]: > 100 µM | TGI [33]: > 100 µM | TGI [34]: > 100 µM | TGI [55]: > 100 µM | TGI [56]: > 100 µM | TGI [57]: > 100 µM | TGI [36]: > 100 µM | TGI [37]: > 100 µM | TGI [38]: > 100 µM | TGI [58]: > 100 µM | TGI [39]: > 100 µM | TGI [40]: > 100 µM | TGI [41]: > 100 µM | TGI [44]: > 100 µM | TGI [45]: > 100 µM | TGI [46]: > 100 µM | TGI [47]: > 100 µM | TGI [48]: > 100 µM | TGI [49]: > 100 µM

CCOP(=O)(/C=C/n1ccc(=O)[nH]c1=O)OCC
TGI [1]: > 100 µM | TGI [2]: > 100 µM | TGI [3]: > 100 µM | TGI [4]: > 100 µM | TGI [5]: > 100 µM | TGI [6]: > 100 µM | TGI [7]: > 100 µM | TGI [50]: > 100 µM | TGI [8]: > 100 µM | TGI [51]: > 100 µM | TGI [10]: > 100 µM | TGI [11]: > 100 µM | TGI [12]: > 100 µM | TGI [13]: > 100 µM | TGI [14]: > 100 µM | TGI [15]: > 100 µM | TGI [16]: > 100 µM | TGI [53]: > 100 µM | TGI [17]: > 100 µM | TGI [18]: > 100 µM | TGI [20]: > 100 µM | TGI [21]: > 100 µM | TGI [22]: > 100 µM | TGI [23]: > 100 µM | TGI [24]: > 100 µM | TGI [25]: > 100 µM | TGI [26]: > 100 µM | TGI [27]: > 100 µM | TGI [28]: > 100 µM | TGI [54]: > 100 µM | TGI [29]: > 100 µM | TGI [30]: > 100 µM | TGI [31]: > 100 µM | TGI [32]: > 100 µM | TGI [33]: > 100 µM | TGI [34]: > 100 µM | TGI [55]: > 100 µM | TGI [35]: > 100 µM | TGI [56]: > 100 µM | TGI [57]: > 100 µM | TGI [36]: > 100 µM | TGI [37]: > 100 µM | TGI [38]: > 100 µM | TGI [58]: > 100 µM | TGI [39]: > 100 µM | TGI [40]: > 100 µM | TGI [41]: > 100 µM | TGI [43]: > 100 µM | TGI [44]: > 100 µM | TGI [45]: > 100 µM | TGI [46]: > 100 µM | TGI [47]: > 100 µM | TGI [48]: > 100 µM

Source: PubChem BioAssay (NCI)
